# Results: patent US5723494A, “Derivatives of glutamic and aspartic acids, a method of preparing them, and their use as drugs for enhancing memory and learning” (priority 1993, dated 1998)
# Entries after “also recorded” stand apart in the source; their conditions may differ.
# Key:
# [1] = Acute toxicity (LD50) in the mouse; settings: in vivo
# [2] = Antiamnesic activity in the mouse (step-down passive avoidance, amnesia induced by ECS); assay type: in vivo, mouse (CD1 male); settings: mouse
# [3] = Antagonism of the amnesic effect induced by scopolamine in the passive avoidance test in the rat; assay type: in vivo; settings: for % Effect vs controls / Latency (STL): FS + SCOP
# Protocol: 4) Antagonism of the amnesic effect induced by scopolamine in the "passive avoidance" test in the rat.
# The shuttle box equipment was used for passive avoidance as described in Experiment 2 with the following modifications: the compounds (or physiological solutions for the control group) were administered intraperitoneally (IP) 45 min before the training, whereas scopolamine (SCOP) was administered 30 min before the training. The foot shock (FS) consisted of a 0.2 mA shock of 5 sec duration.
# The retest to determine memory was executed 24 h after the training. In each individual experiment, the following groups were used: a control group (-FS), a control group (+FS), a control group (FS+SCOP), 3 treatment groups with different doses of the product under test (FS+SCOP).
# [4] = Memory-enhancement activity in the active avoidance test in the rat; assay type: in vivo, rat (male Wistar); settings: for % variation vs controls, avoidance learning / % variation vs controls, avoidance memory / % variation vs controls, escape response / % variation vs controls, shock response / % variation vs controls, total avoidance response / Average % avoidance learning, last 10 TR / Average % avoidance memory, first 10 TR/40 TR / Average % escape response / Average % shock response / Average % total avoidance response, 40 trials: fifth day
# Source text: 3) Memory-enhancement activity in the "active avoidance" test in the rat
# Male Wistar rats which weighed about 200 g and had not fasted were used. The method consisted of making the animal understand that, in order to avoid a shock, it must go from one compartment of the equipment used (a shuttle box) to the other. For this reason it is defined as active avoidance (because the animal takes action to avoid the punishment).
# In this test it is also possible to discriminate between two different parameters: memory and learning.
# The equipment consisted of a cage divided into two portions by a wall with an opening at floor level to enable the animal to go from one portion of the cage to the other.
# The reinforcement, that is, the reason which forced the rat to become conditioned to the sound and to the light, consisted of an electrical stimulus coming from the grid floor of the cage (an Unconditioned stimulus). The floor of the cage was constituted by a metal grid for the passage of the current and could rock so that, each time the rat passed through the dividing hole, the floor tilted, due to its weight, interrupting the current.
# The test lasted for five days. On the first day, the animals were subjected to the first session of 40 cycles with an interval of 30 sec between cycles (duration of the session=20 minutes).
# For each 30 sec cycle, a light stimulus and a sound stimulus lasting for 3 seconds were applied, followed by the 0.4 mA shock, which also lasted for 3 sec.
# At the end of the first day, the rats were selected randomly in homogeneous groups and treated with the product under test or with physiological solutions (controls).
# On subsequent days, the rats underwent the first treatment 15 minutes before the session and the second treatment at the end of the day. In 5 days of tests the animal thus underwent 8 treatments in total.
# The 40 cycles were divided into 4 sessions each of 10 cycles for the 5 days' duration of the test.
# The performance of each animal was evaluated as: % shock response, % escape response; % total avoidance response (these refer to all 40 cycles of each day); memory, as % of the avoidance responses in the first session of each day (the first 10 cycles); learning: as % of avoidance responses in the fourth session of each day (the last 10 cycles).
# All the % were calculated on regression lines calculated on the basis of the responses obtained daily for each individual parameter, on the fifth (last) day of the experiment.
# The results are expressed as the percentage variation of the averages of the individual responses obtained for the treated groups in comparison with the control group. The results thus calculated are given in Table 3 below, which gives the statistical analysis between the treatment groups against the controls, carried out by analysis of the relative variance with respect to the overall results for the 5 days.
compound,measurement,setting,value
"CC1(C)CCC(NC(=O)[C@@H](N)CCC(=O)O)CC1 [Compound 23, 1-(4,4-dimethylcyclohexyl)-L-isoglutamine[4-amino-5-(4',4'-dimethylcyclohexylamine)-5-oxopentanoic acid (S)]]",LD50,[1]; IV,290 mg/kg
same,LD50,"[1]; po, OS",1300 mg/kg
same,Antiamnesic activity (in words),[2]; OS,particularly remarkable
same,change in vivo at 0.1 mg/kg,"[2]; po, 0.1 mg/kg OS, retest 24 h after training, read-out: Reversal of the amnesia (% vs controls), as the increase in the Step Down Latency",20%
same,change in vivo at 1 mg/kg,"[2]; po, 1 mg/kg OS, retest 24 h after training, read-out: Reversal of the amnesia (% vs controls), as the increase in the Step Down Latency",40%
same,change in vivo at 3 mg/kg,"[2]; po, 3 mg/kg OS, retest 24 h after training, read-out: Reversal of the amnesia (% vs controls), as the increase in the Step Down Latency",37%
same,change in vivo at 10 mg/kg,"[2]; po, 10 mg/kg OS, retest 24 h after training, read-out: Reversal of the amnesia (% vs controls), as the increase in the Step Down Latency",61%
same,change in vivo at 30 mg/kg,"[2]; po, 30 mg/kg OS, retest 24 h after training, read-out: Reversal of the amnesia (% vs controls), as the increase in the Step Down Latency",67%
same,ED50,"[2]; po, OS, 60 min before training, read-out: ID50 (antiamnesic activity, dose inhibiting the amnesic effect of the ECS by 50%)",4.6 mg/kg
same,% Effect vs controls,[3]; 0.1 mg/kg IP,7.1%
same,Latency (STL),[3]; 0.1 mg/kg IP,60.8 s
same,% Effect vs controls,[3]; 1 mg/kg IP,38.0%
same,Latency (STL),[3]; 1 mg/kg IP,72.0 s
same,% Effect vs controls,[3]; 10 mg/kg IP,55.8%
same,Latency (STL),[3]; 10 mg/kg IP,78.6 s
same,ED50,"[3]; IP, rat, retest 24 h after training, read-out: ID50 (dose antagonizing the amnesic effect of scopolamine by 50%)",4.7 mg/kg
same,Antagonism of the amnesic effect of scopolamine (in words),"[3]; rat, IP","antagonizes the amnesic effect induced by scopolamine in a dose-dependent manner; also recorded: comparable, in this model, with that of tacrine"
same,"% variation vs controls, avoidance learning",[4]; 1 mg/kg i.p. 2/day,+17.2%
same,"% variation vs controls, avoidance memory",[4]; 1 mg/kg i.p. 2/day,-16.7%
same,"% variation vs controls, escape response",[4]; 1 mg/kg i.p. 2/day,-11.1%
same,"% variation vs controls, shock response",[4]; 1 mg/kg i.p. 2/day,-8.6%
same,"% variation vs controls, total avoidance response",[4]; 1 mg/kg i.p. 2/day,+33.3%
same,"Average % avoidance learning, last 10 TR",[4]; 1 mg/kg i.p. 2/day,34%
same,"Average % avoidance memory, first 10 TR/40 TR",[4]; 1 mg/kg i.p. 2/day,10%
same,Average % escape response,[4]; 1 mg/kg i.p. 2/day,8%
same,Average % shock response,[4]; 1 mg/kg i.p. 2/day,64%
same,"Average % total avoidance response, 40 trials",[4]; 1 mg/kg i.p. 2/day,26%
same,"% variation vs controls, avoidance learning",[4]; 3 mg/kg i.p. 2/day,+82.7%
same,"% variation vs controls, avoidance memory",[4]; 3 mg/kg i.p. 2/day,+142%
same,"% variation vs controls, escape response",[4]; 3 mg/kg i.p. 2/day,+144%
same,"% variation vs controls, shock response",[4]; 3 mg/kg i.p. 2/day,-51.4%
same,"% variation vs controls, total avoidance response",[4]; 3 mg/kg i.p. 2/day,+109%
same,"Average % avoidance learning, last 10 TR",[4]; 3 mg/kg i.p. 2/day,53%
same,"Average % avoidance memory, first 10 TR/40 TR",[4]; 3 mg/kg i.p. 2/day,29%
same,Average % escape response,[4]; 3 mg/kg i.p. 2/day,22%
same,Average % shock response,[4]; 3 mg/kg i.p. 2/day,34%
same,"Average % total avoidance response, 40 trials",[4]; 3 mg/kg i.p. 2/day,44%
same,"% variation vs controls, avoidance learning",[4]; 10 mg/kg i.p. 2/day,+145%
same,"% variation vs controls, avoidance memory",[4]; 10 mg/kg i.p. 2/day,+183%
same,"% variation vs controls, escape response",[4]; 10 mg/kg i.p. 2/day,+241%
same,"% variation vs controls, shock response",[4]; 10 mg/kg i.p. 2/day,-81.4%
same,"% variation vs controls, total avoidance response",[4]; 10 mg/kg i.p. 2/day,+166%
same,"Average % avoidance learning, last 10 TR",[4]; 10 mg/kg i.p. 2/day,71%
same,"Average % avoidance memory, first 10 TR/40 TR",[4]; 10 mg/kg i.p. 2/day,34%
same,Average % escape response,[4]; 10 mg/kg i.p. 2/day,31%
same,Average % shock response,[4]; 10 mg/kg i.p. 2/day,13%
same,"Average % total avoidance response, 40 trials",[4]; 10 mg/kg i.p. 2/day,56%
same,Shock responses (in words),"[4]; rat, i.p.",greatly reduced
same,Total avoidance responses (in words),"[4]; rat, i.p.",significantly increases the total avoidance responses in a dose-dependent manner
